Test results as given in patent publication US8735387B2, “Oxazolopyrimidines as Edg-1 receptor agonists” (Sanofi, priority 2008, dated 2014).

Each compound was assayed against T1, human Edg-1 receptor (Homo sapiens, UniProt P21453) (assay: GTP-γ-S assay using human Edg-1 receptors (scintillation proximity assay, membrane preparation from CHO Flp-In cell line)). Conditions: example compound at 10 μM; relative to 10 μM S1P; GTP-γ-S SPA, human Edg-1 membranes.
T1 construct: expressed in transfected cells; membrane preparation
T1 sequence (P21453 whole entry): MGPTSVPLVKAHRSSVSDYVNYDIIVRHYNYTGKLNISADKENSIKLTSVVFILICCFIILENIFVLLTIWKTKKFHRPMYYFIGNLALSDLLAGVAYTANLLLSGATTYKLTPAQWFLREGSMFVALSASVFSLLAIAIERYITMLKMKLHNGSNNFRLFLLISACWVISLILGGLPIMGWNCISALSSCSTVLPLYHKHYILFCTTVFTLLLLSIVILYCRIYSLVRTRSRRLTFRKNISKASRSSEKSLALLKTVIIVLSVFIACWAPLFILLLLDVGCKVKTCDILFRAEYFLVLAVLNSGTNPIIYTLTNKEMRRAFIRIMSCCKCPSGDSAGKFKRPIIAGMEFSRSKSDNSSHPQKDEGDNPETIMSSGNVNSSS
Type: biochemical
Method in brief: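 Membranes came from Flp-In CHO cells constitutively expressing human Edg-1 carrying an N-terminal FLAG tag. Compound-induced receptor activation was read as GTP-γ-S binding in a scintillation proximity format.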

SMILES	% Activation (Edg-1 receptor activation in percent of the activation by 10 μM S1P)
Clc1ccc(Cc2nc(OCC3CC3)c3nc(-c4ccc(N5CCOCC5)nc4)oc3n2)cc1 [Example 139]	87%
C=CCOc1nc(Cc2ccc(Cl)c(Cl)c2)nc2oc(-c3cccc(F)c3)nc12 [Example 141]	85%
CCCOc1nc(Cc2ccc(Cl)cc2)nc2oc(-c3ccc(N4CCOCC4)nc3)nc12 [Example 148]	41%
CCCOc1nc(Cc2ccc(Cl)cc2)nc2oc(-c3cc(C)cc(C)c3)nc12 [Example 149]	102%
CCCOc1nc(Cc2ccc(Cl)cc2)nc2oc(-c3ccncc3F)nc12 [Example 150]	143%
CCCOc1nc(Cc2ccc(Cl)cc2)nc2oc(-c3ccc(OC)nc3)nc12 [Example 151]	26%
CCCOc1nc(Cc2ccc(Cl)cc2)nc2oc(-c3ccc(O)c(F)c3)nc12 [Example 152]	100%
CCCOc1nc(Cc2ccc(Cl)cc2)nc2oc(-c3cncc(C)c3)nc12 [Example 153]	84%
Fc1cccc(-c2nc3c(OCC4CC4)nc(CC4CCOCC4)nc3o2)c1 [Example 161]	96%
CCOc1nc(CC2CCC2)nc2oc(-c3cccc(C)c3)nc12 [Example 163]	118%
CCOc1nc(CC2CCC2)nc2oc(-c3cc(F)ccc3Cl)nc12 [Example 164]	98%
Cc1cccc(-c2nc3c(OCC4CC4)nc(CC4CCC4)nc3o2)c1 [Example 165]	97%
CCCOc1nc(Cc2cc(OC)cc(OC)c2)nc2oc(-c3cccc(C)c3)nc12 [Example 166]	42%
CCCOc1nc(Cc2ccc(Cl)cc2)nc2oc(-c3cc(C)ccc3F)nc12 [Example 167]	102%
CCCOc1nc(Cc2ccc(Cl)cc2)nc2oc(-c3ccc(Cl)c(C)c3)nc12 [Example 169]	87%
CCCOc1nc(Cc2ccc(Cl)cc2)nc2oc(-c3cccc(C)c3C)nc12 [Example 170]	89%
CCCOc1nc(Cc2ccc(Cl)cc2)nc2oc(-c3cccc(C)c3F)nc12 [Example 171]	115%

SMILES	% Activation (Edg-1 receptor activation in percent of the activation by 10 μM S1P)
CCCOc1nc(Cc2ccc(Cl)cc2)nc2oc(-c3ccc(F)c(C)c3)nc12 [Example 172]	78%
CCCOc1nc(Cc2ccc(Cl)cc2)nc2oc(-c3cnc(N4CCN(C)CC4)nc3)nc12 [Example 173]	77%
CCCOc1nc(Cc2ccc(Cl)cc2)nc2oc(-c3cncnc3)nc12 [Example 174]	75%
CCCOc1nc(Cc2ccc(Cl)cc2)nc2oc(-c3ccc(C(C)=O)s3)nc12 [Example 175]	116%
CCCOc1nc(Cc2ccc(Cl)cc2)nc2oc(-c3ccc(OC)c(C)c3)nc12 [Example 176]	94%
CCCOc1nc(Cc2ccc(Cl)cc2)nc2oc(-c3cc(OC)ncc3Cl)nc12 [Example 177]	106%
CCCOc1nc(Cc2ccc(Cl)cc2)nc2oc(-c3ccc(N(C)C)c(C)c3)nc12 [Example 178]	91%
Cc1cccc(-c2nc3c(OC(C)C)nc(CN4CCOCC4)nc3o2)c1 [Example 186]	123%
Cc1cccc(-c2nc3c(OC4COC4)nc(CN4CCOCC4)nc3o2)c1 [Example 187]	116%
CCCOc1nc(Cc2ccccc2)nc2oc(-c3cc(C)c(OC)c(C)c3)nc12 [Example 188]	112%
COc1cccc(-c2nc3c(OCC(C)C)nc(Cc4ccccc4)nc3o2)c1 [Example 189]	114%
CCOc1nc(Cc2ccc(Cl)cc2)nc2oc(-c3cc(C)c(OC)c(C)c3)nc12 [Example 190]	66%
CCOc1nc(Cc2ccc(Cl)cc2)nc2oc(-c3cc(C)c(O)c(C)c3)nc12 [Example 191]	98%
CCCOc1nc(Cc2ccc(Cl)cc2)nc2oc(-c3cc(C)c(OCC(O)CN(C)C)c(C)c3)nc12 (stereo not drawn) [Example 192]	60%
CCCOc1nc(Cc2ccc(Cl)cc2)nc2oc(-c3cc(C)c(OCC(O)CN4CCOCC4)c(C)c3)nc12 (stereo not drawn) [Example 193]	114%
Cc1cc(-c2nc3c(OC(C)C)nc(Cc4ccc(Cl)cc4)nc3o2)cc(C)c1OCC(O)CN1CCOCC1 (stereo not drawn) [Example 194]	98%

Results, then the compound that gave them:

% Activation (Edg-1 receptor activation in percent of the activation by 10 μM S1P)	SMILES
92%	CCCOc1nc(CN2CCCC2COC)nc2oc(-c3cccc(F)c3)nc12 (stereo not drawn) [Example 140]
75%	CCCOc1nc(CN2C(=O)CC(C)(C)CC2=O)nc2oc(-c3cccc(F)c3)nc12 [Example 142]
73%	CCCOc1nc(CN2CCCC2Cc2ccccc2)nc2oc(-c3cccc(F)c3)nc12 (stereo not drawn) [Example 143]
67%	CCCOc1nc(CN2CCC(OC)CC2)nc2oc(-c3cccc(F)c3)nc12 [Example 145]
56%	CCCOc1nc(CN2CC(=O)N(Cc3ccccc3)C2=O)nc2oc(-c3cccc(F)c3)nc12 [Example 146]
55%	CCCOc1nc(CN2CCCCC2c2nccs2)nc2oc(-c3cccc(F)c3)nc12 (stereo not drawn) [Example 147]
88%	CCCOc1nc(Cn2cnc(C)n2)nc2oc(-c3cccc(F)c3)nc12 [Example 154]
87%	CCCOc1nc(Cn2ncnc2C)nc2oc(-c3cccc(F)c3)nc12 [Example 155]
73%	CCCOc1nc(CC2CCOCC2)nc2oc(-c3cccc(C)c3)nc12 [Example 159]
69%	CCCOc1nc(CC2CCOCC2)nc2oc(-c3cccc(F)c3)nc12 [Example 160]
108%	CCCOc1nc(CC2CCC2)nc2oc(-c3cccc(C)c3)nc12 [Example 162]
87%	CCCOc1nc(CN2CCCC(O)C2)nc2oc(-c3cccc(F)c3)nc12 (stereo not drawn) [Example 179]
41%	CCCOc1nc(CN2C(C(=O)O)CCS2(=O)=O)nc2oc(-c3cccc(F)c3)nc12 (stereo not drawn) [Example 180]
58%	CCCOc1nc(CN2CCC(O)C2)nc2oc(-c3cccc(F)c3)nc12 (stereo not drawn) [Example 181]
108%	CCCOc1nc(CN2CCCCC2)nc2oc(-c3cccc(F)c3)nc12 [Example 182]
85%	CCCOc1nc(CN2CCCC2)nc2oc(-c3cccc(F)c3)nc12 [Example 183]
88%	CCCOc1nc(CN2CCOC[C@@H]2C)nc2oc(-c3cccc(F)c3)nc12 [Example 184]
97%	CCCOc1nc(CN2CCOC[C@@H]2CO)nc2oc(-c3cccc(F)c3)nc12 [Example 185]

Same assay, conditions: example compound at 10 μM; relative to 10 μM S1P; GTP-γ-S SPA, human Edg-1 membranes; read-out: % Activation (Edg-1 receptor activation in percent of the activation by 10 μM S1P)

SMILES	activation at 10 µM
CCCOc1nc(Cc2ccc(Cl)cc2)nc2oc(-c3cc(C)c(OC)c(C)c3)nc12 [Example 168, 5-(4-chloro-benzyl)-2-(4-methoxy-3,5-dimethyl-phenyl)-7-propoxy-oxazolo[5,4-d]pyrimidine]	117%
CCCOc1nc(Cc2ccc(Cl)cc2)nc2oc(-c3cc(C)c(OCC(O)CNC(=O)c4ccccc4)c(C)c3)nc12 (stereo not drawn) [Example 195, N-(3-{4-[5-(4-Chloro-benzyl)-7-propoxy-oxazolo[5,4-d]pyrimidin-2-yl]-2,6-dimethyl-phenoxy}-2-hydroxy-propyl)-benzamide]	84%
CCOc1nc(Cc2ccc(Cl)cc2)nc2oc(-c3cc(C)c(OCC(O)CSc4nnc(C(C)C)[nH]4)c(C)c3)nc12 (stereo not drawn) [Example 196, 1-{4-[5-(4-Chloro-benzyl)-7-ethoxy-oxazolo[5,4-d]pyrimidin-2-yl]-2,6-dimethyl-phenoxy}-3-(5-isopropyl-4H-[1,2,4]triazol-3-ylsulfanyl)-propan-2-ol]	83%
CCOc1nc(Cc2ccc(Cl)cc2)nc2oc(-c3cc(C)c(OCC(O)CS(=O)(=O)c4nnc(C(C)C)[nH]4)c(C)c3)nc12 (stereo not drawn) [Example 197, 1-{4-[5-(4-Chloro-benzyl)-7-ethoxy-oxazolo[5,4-d]pyrimidin-2-yl]-2,6-dimethyl-phenoxy}-3-(5-isopropyl-4H-[1,2,4]triazole-3-sulfonyl)-propan-2-ol]	119%
CCCOc1nc(Cc2ccc(Cl)cc2)nc2oc(-c3cc(C)c(OCC(=O)O)c(C)c3)nc12 [Example 198, {4-[5-(4-Chloro-benzyl)-7-propoxy-oxazolo[5,4-d]pyrimidin-2-yl]-2,6-dimethyl-phenoxy}-acetic acid]	111%
CCCOc1nc(Cc2ccc(Cl)cc2)nc2oc(-c3cc(C)c(OCC(=O)NCC(=O)O)c(C)c3)nc12 [Example 199, (2-{4-[5-(4-Chloro-benzyl)-7-propoxy-oxazolo[5,4-d]pyrimidin-2-yl]-2,6-dimethyl-phenoxy}-acetylamino)-acetic acid]	112%
